Columns and labels:
dermal human fibroblasts = assay: UVA radiation-induced formation of mitochondrial DNA mutations (common deletion), PCR (Example B4); format: cell-based; conditions: 1 mM pretreatment, 8 J/cm^2 UVA three times daily, four successive days, three weeks, FIG. 4
Source text: Dermal human fibroblasts are cultivated in Eagle minimal medium. The cells are irradiated three times daily with 8 J/cm^2 of UVA on four successive days over a total of three weeks. The mt-DNA is then extracted and amplified using PCR. Further details on the method are described in detail in M. Berneburg, S. Grether-Beck, V. Kürten, Th. Ruzicka, K. Briviba, H. Sies, J. Krutmann, J Biol Chem 274 (1999) 15345-15349 and M. Berneburg, N. Gattermann, H. Stege, M. Grewe, K. Vogelsang, Th. Ruzicka, J. Krutmann, Photobiol. 66 (1997) 271-275.

ICAM-1 = assay: Inhibition of UV-A-induced ICAM-1 expression, differential RT-PCR (Example B3); format: cell-based, human; conditions: keratinocytes, 1 mM pre-incubation for 24 hours, UVA 30 J/cm^2, relative to β-actin, all points in time, FIG. 3
Method: The expression of ICAM-1 is measured using differential reverse transcriptase PCR (RT -PCR) and the kit from Applied Biosystem. In order to take into account the normal variations in gene expression of skin cells, the ICAM-1 expression is compared with the housekeeping gene β-actin formed constitutively. Semiquantitative analysis of the RT-PCR is carried out by ion exchange chromatography using a UV spectrophotometer (A260). (A) Un-pretreated, irradiated control, (B) pre-incubated with 1 mM RONACARE™ ectoin for 24 hours and irradiated with a single dose of 30 J/cm^2, or (C) pre-incubated with 1 mM ectoin for 24 hours, unirradiated. The UVA radiation induces an increase in ICAM-1 expression.

[1] = test system: normal human keratinocytes; assay: Inhibition of UV-A-induced ceramide formation, quantitative HPTLC (Example B1); format: cell-based; conditions: 1 mM pre-incubation for 24 hours, UVA 30 J/cm^2, 1 hour after irradiation, FIG. 1
Method: The concentration of a second messenger (ceramide) in UVA-irradiated normal human keratinocytes which have either been pretreated with 1 mM RONACARE™ ectoin or are untreated compared with unirradiated keratinocytes is measured using a quantitative HPTLC method. (A) Un-pretreated control, (B) pre-incubated only with the cell medium for 24 hours, (C) pre-incubated with 1 mM RONACARE™ ectoin for 24 hours. The cells pre-treated in this way are irradiated with a single dose of UVA of 30 J/cm^2 (radiation source: Sellamed 24000). The cells are “harvested” 1 hour after irradiation, a lipid extraction is carried out, and the concentration of the second messenger is determined by quantitative HPTLC. Methodological details are given in Grether-Beck Set al., EMBO J 19: 5793-5800, 2000. […] The data are shown as histograms of ectoin (mM) against ceramide (ng).

[2] = test system: normal human keratinocytes; assay: Release of second messenger in UV-A-irradiated keratinocytes (Example A); format: cell-based; conditions: 2 mM for 24 hours
Method: Normal human keratinocytes which are left untreated or have been treated with a 2 mM solution of RONACARE™ ectoin for 24 hours are subjected to a UV-A radiation dose of 30 J/cm^2 (wavelength of the UV-A radiation: 340-400 nm). […] The cells are harvested 1 hour after irradiation (=maximum UV-A-induced second messenger formation). The release of the second messenger was determined.

[3] = test system: transcription factor AP-2; assay: Inhibition of UV-A-induced AP-2 activation, gel electrophoresis mobility shift assay (Example B2); format: cell-based; conditions: human keratinocytes, 1 mM pre-incubation for 24 hours, UV-A 30 J/cm^2, FIG. 2
Method: The determination of the activation of transcription factor AP-2 is carried out with the aid of gel electrophoresis mobility shift assays (GEMSA). To this end, a nucleus extract (according to J.D. Dignam, P.L.Martin, B.S. Skastry, R.G.G. Roeder, Methods Enzymol 101 (1983) 582-598) of human keratinocytes which had previously been irradiated for 1 hour with 30 J/cm^2 of UV-A light is incubated in comparison with an unirradiated control with the consensus oligonucleotide sequence of ICAM-1 promoter (in accordance with G.G. Stade, G. Messer, G. Riethmüller, J.P. Johannson; Immunobiology 182 (1990) 79-87). The amount of bound AP-2 is subsequently determined by means of GEMSA. (A) Un-pretreated, unirradiated control, (B) pre-incubated with 1 mM RONACARE™ ectoin for 24 hours and irradiated with a single dose of 30 J/cm^2, or (C) pre-incubated only with the cell medium for 24 hours and irradiated with 30 J/cm^2. The UVA irradiation results in activation of transcription factor AP-2 after UVA exposure.

Compound: CC1=N[C@H](C(=O)O)CCN1 [RONACARE™ ectoin, (S)-1,4,5,6-tetrahydro-2-methyl-4-pyrimidinecarboxylic acid]
- formation of mt-DNA mutations (dermal human fibroblasts): prevented the formation of mt-DNA mutations
- ICAM-1 induction induced by UVA radiation (ICAM-1): virtually completely eliminate ICAM-1 induction
- ceramide formation induced by UVA radiation [1]: completely suppresses ceramide formation
- UV-A-induced release of the second messenger ([2]; UV-A 30 J/cm^2): inhibits the UV-A-induced release of the second messenger
- Increase in second messenger ([2]; UV-A 30 J/cm^2 (340-400 nm), harvested 1 hour after irradiation): 5.65 ng
- activation of transcription factor AP-2 after UVA exposure [3]: suppressed virtually completely
